Measured values taken from patent US8633205B2, “Substituted pyrrolo[2,3-d]pyrimidines as inhibitors of protein kinases” (Vertex Pharmaceuticals Incorporated, priority 2005, dated 2014).

Tests used:
Type in all cases: biochemical
JAK2 = JAK2 (Homo sapiens, UniProt O60674); assay: JAK2 Inhibition Assay; conditions: 15 μM poly(Glu)4Tyr, 12 μM ATP; read-out: JAK2 enzyme inhibition (Ki)
Protocol: (§1) Compounds were screened for their ability to inhibit JAK using the […] below. Reactions were carried out in a kinase buffer containing 100 mM HEPES (pH 7.4), 1 mM DTT, 10 mM MgCl2, 25 mM NaCl, and 0.01% BSA.
(§2) Substrate concentrations in the assay were 5 μM ATP (200 uCi/μmole ATP) 1 μM poly(Glu)4Tyr. Reactions were carried out at 25 ° C. and 1 nM JAK3.
(§3) To each well of a 96 well polycarbonate plate was added 1.5 μl of a JAK3 inhibitor along with 50 μl of kinase buffer containing 2 μM poly(Glu)4Tyr and 10 μM ATP. This was then mixed and 50 μl of kinase buffer 2 nM JAK3 enzyme was added to start the reaction. After 20 minutes at room temperature (25C), the reaction was stopped with 50 μl of 20% trichloroacetic acid (TCA) that also contained 0.4 mM ATP. The entire contents of each well were then transferred to a 96 well glass fiber filter plate using a TomTek Cell Harvester. After washing, 60 μl of scintillation fluid was added and ^33P incorporation detected on a Perkin Elmer TopCount.
As described above in Example 11 except that JAK-2 enzyme is used, the final poly(Glu)4Tyr concentration is 15 μM, and final ATP concentration is 12 μM.

JAK3 = target: T1, JAK3 (Homo sapiens, UniProt P52333); assay: JAK3 Inhibition Assay; conditions: 1 μM poly(Glu)4Tyr, 5 μM ATP, 1 nM JAK3, 25 °C; read-out: JAK3 enzyme inhibition (Ki)
T1 sequence (P52333 1-1124): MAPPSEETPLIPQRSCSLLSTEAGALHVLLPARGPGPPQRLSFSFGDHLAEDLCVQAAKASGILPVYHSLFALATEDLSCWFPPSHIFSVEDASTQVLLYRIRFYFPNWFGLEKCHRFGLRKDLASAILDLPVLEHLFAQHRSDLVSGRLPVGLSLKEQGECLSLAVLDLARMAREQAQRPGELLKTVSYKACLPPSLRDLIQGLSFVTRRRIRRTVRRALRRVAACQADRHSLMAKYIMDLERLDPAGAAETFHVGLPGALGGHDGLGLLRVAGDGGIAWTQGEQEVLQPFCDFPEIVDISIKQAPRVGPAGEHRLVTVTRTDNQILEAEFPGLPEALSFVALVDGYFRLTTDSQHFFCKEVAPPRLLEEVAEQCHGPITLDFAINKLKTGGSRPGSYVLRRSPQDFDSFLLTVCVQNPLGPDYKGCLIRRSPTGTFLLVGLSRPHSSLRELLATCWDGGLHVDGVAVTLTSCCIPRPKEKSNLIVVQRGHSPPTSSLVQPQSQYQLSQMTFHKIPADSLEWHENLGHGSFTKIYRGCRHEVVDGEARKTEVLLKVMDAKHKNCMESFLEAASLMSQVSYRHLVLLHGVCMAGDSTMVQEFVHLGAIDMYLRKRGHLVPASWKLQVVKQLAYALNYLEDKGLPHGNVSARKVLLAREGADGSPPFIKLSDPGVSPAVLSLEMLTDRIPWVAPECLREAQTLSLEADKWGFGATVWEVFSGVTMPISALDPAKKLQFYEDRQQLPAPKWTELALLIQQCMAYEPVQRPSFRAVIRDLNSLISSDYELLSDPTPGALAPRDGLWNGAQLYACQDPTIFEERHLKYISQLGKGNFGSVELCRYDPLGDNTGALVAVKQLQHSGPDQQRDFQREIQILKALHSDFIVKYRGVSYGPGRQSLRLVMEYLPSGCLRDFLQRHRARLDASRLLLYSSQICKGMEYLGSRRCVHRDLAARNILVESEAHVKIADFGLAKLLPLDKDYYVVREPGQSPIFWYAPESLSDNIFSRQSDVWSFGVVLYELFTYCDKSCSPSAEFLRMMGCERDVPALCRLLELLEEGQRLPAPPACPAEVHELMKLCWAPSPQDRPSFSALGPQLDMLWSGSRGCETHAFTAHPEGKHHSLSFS
Protocol: as §1, §2, §3

PKA = PKA (Homo sapiens, UniProt P17612); assay: PKA Inhibition Assay (coupled enzyme assay); conditions: 50 μM ATP, 80 μM Kemptide, 18 nM PKA, 30 °C
Protocol: Compounds were screened for their ability to inhibit PKA using a standard coupled enzyme assay (Fox et al., Protein Sci, 1998, 7, 2249). Assays were carried out in a mixture of 100 mM HEPES (pH 7.5), 10 mM MgCl2, 25 mM NaCl, 1 mM DTT and 3% DMSO. Final substrate concentrations in the assay were 50 μM ATP (Sigma Chemicals) and 80 μM peptide (Kemptide, American Peptide, Sunnyvale, Calif.). Assays were carried out at 30 ° C. and 18 nM PKA. Final concentrations of the components of the coupled enzyme system were 2.5 mM phosphoenolpyruvate, 300 μM NADH, 30 μg/ml pyruvate kinase and 10 μg/ml lactate dehydrogenase.
An assay stock buffer solution was prepared containing all of the reagents listed above, with the exception of ATP, and the test compound of the present invention. 55 μl of the stock solution was placed in a 96 well plate followed by addition of 2 μl of DMSO stock containing serial dilutions of the test compound of the present invention (typically starting from a final concentration of 5 μM). The plate was preincubated for 10 minutes at 30° C. and the reaction initiated by addition of 5 μl of ATP (final concentration 50 μM). Initial reaction rates were determined with a Molecular Devices SpectraMax Plus plate reader over a 15 minute time course. IC50 and Ki data were calculated from non-linear regression analysis using the Prism software package (GraphPad Prism version 3.0a for Macintosh, GraphPad Software, San Diego, Calif., USA).

ROCK = target: T2, ROCK (Homo sapiens, UniProt Q13464); assay: ROCK Inhibition Assays; conditions: read-out: ROCK enzyme inhibition (Ki)
T2 construct: ROCK I (AA 6-553)
T2 sequence (Q13464 6-553): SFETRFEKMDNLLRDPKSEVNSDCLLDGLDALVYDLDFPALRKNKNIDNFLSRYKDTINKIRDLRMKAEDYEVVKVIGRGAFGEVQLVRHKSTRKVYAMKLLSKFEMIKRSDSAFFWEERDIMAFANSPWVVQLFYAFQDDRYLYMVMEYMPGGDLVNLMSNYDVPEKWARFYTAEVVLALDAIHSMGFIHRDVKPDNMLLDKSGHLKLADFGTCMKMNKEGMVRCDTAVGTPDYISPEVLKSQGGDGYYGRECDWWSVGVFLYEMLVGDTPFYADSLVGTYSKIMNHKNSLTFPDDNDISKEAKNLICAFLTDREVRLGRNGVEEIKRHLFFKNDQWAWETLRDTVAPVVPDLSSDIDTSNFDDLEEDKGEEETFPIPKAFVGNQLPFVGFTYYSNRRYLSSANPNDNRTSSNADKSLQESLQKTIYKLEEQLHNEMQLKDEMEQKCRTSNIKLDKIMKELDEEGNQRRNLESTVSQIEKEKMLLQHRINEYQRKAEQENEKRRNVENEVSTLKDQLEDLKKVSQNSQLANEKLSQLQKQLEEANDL
Protocol: Compounds are screened for their ability to inhibit ROCK I (AA 6-553) activity using a standard coupled enzyme system (Fox et al. Protein Sci. 7: 2249, 1998). Reactions are carried out in a solution containing 100 mM HEPES (pH 7.5), 10 mM MgCl2, 25 mM NaCl, 2 mM DTT and 1.5% DMSO. Final substrate concentrations in the assay are 45 μM ATP (Sigma Chemicals, St Louis, Mo.) and 200 μM peptide (American Peptide, Sunnyvale, Calif.). Reactions are carried out at 30 ° C. and 45 nM ROCK I. Final concentrations of the components of the coupled enzyme system are 2.5 mM phosphoenolpyruvate, 350 μM NADH, 30 μg/ml pyruvate kinase and 10 μg/ml lactate dehydrogenase.
Compounds are screened for their ability to inhibit ROCK using a standard radioactive enzyme assay. Assays are carried out in a solution containing 100 mM HEPES (pH 7.5), 10 mM MgCl2, 25 mM NaCl, 2 mM DTT and 1.5% DMSO. Final substrate concentrations in the assay are 13 μM [γ-^33P] ATP (25 mCi ^33P ATP/mmol ATP, Perkin Elmer, Cambridge, Mass./Sigma Chemicals, St Louis, Mo.) and 27 μM Myelin Basic Protein (MBP). Final enzyme concentration in the assay is 5 nM ROCK. Assays are carried out at room temperature. 1.5 μl of DMSO stock containing serial dilutions of the compound of the present invention (concentrations ranging from 10 μM to 2.6 nM) is placed in a 96 well plate. 50 μl of Solution 1 (100 mM HEPES (pH 7.5), 10 mM MgCl2, […] [γ-^33P] ATP) is added to the plate. The reaction is initiated by addition of 50 μl of Solution 2 (100 mM HEPES (pH 7.5), 10 mM MgCl2, 4 mM DTT, […] and 10 nM ROCK). After 2 hours the reaction is quenched with 50 μL of 30% trichloroacetic acid (TCA, Fisher) containing 9 mM ATP. Transfer of 140 μL of the quenched reaction to a glass fiber filter plate (Corning, Cat. No.3511) is followed by washing 3 times with 5% TCA. 50 μL of Optima Gold scintillation fluid (Perkin Elmer) is added and the plates are counted on a Top Count (Perkin Elmer). After removing mean background values for all of the data points the data is fit using Prism software to obtain a Ki(app).

Sequence of JAK2 (O60674 whole entry): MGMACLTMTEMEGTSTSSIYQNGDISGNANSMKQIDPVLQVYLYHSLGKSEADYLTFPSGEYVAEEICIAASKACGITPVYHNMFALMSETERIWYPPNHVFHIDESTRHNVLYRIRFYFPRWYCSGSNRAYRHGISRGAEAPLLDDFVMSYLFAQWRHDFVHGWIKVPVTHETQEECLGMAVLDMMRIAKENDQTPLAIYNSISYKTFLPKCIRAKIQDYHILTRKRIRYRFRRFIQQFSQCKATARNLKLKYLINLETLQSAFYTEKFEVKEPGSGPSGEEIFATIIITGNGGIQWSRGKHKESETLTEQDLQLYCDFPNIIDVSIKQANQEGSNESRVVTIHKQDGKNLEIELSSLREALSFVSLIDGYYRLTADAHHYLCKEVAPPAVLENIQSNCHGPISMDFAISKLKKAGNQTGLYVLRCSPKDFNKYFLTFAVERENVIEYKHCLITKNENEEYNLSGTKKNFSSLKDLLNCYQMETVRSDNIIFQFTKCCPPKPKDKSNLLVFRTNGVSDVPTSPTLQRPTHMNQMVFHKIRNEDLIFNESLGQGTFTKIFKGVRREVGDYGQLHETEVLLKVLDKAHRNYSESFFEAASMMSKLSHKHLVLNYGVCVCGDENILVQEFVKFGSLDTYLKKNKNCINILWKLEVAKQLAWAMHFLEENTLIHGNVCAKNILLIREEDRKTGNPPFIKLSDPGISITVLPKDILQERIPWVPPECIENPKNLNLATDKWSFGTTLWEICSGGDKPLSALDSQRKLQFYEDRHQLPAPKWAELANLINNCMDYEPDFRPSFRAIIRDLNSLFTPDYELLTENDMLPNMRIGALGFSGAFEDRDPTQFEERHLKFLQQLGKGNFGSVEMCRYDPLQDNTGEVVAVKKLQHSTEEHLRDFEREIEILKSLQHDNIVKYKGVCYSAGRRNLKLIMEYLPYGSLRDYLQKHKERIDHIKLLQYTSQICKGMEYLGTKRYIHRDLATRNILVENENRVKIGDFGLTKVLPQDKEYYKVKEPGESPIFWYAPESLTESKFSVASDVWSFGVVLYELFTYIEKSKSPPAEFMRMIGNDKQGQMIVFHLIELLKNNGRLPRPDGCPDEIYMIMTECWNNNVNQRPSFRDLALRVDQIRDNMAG

Ki (JAK2) [nM]	Ki (JAK3) [nM]	Ki (PKA) [nM]	Ki (ROCK) [nM]	SMILES
< 500	< 500	500 to 5000	500 to 5000	C1=C(c2ncnc3[nH]ccc23)CCC1 [Compound 1, 4-cyclopentenyl-7H-pyrrolo[2,3-d]pyrimidine]
< 500	< 500	500 to 5000	500 to 5000	C1=C(c2ncnc3[nH]ccc23)CCCC1 [Compound 2]
500 to 5000	500 to 5000	500 to 5000	500 to 5000	c1nc(C2CCCC2)c2cc[nH]c2n1 [Compound 3, 4-cyclopentyl-7H-pyrrolo[2,3-d]pyrimidine]
< 500	< 500	500 to 5000	500 to 5000	C(=C\c1ncnc2[nH]ccc12)/c1ccccc1 [Compound 4, 4-styryl-7H-pyrrolo[2,3-d]pyrimidine]
< 500	< 500	500 to 5000	500 to 5000	Fc1ccc(/C=C/c2ncnc3[nH]ccc23)cc1 [Compound 5, 4-(4-fluorostyryl)-7H-pyrrolo[2,3-d]pyrimidine]
< 500	< 500	500 to 5000	500 to 5000	Clc1ccc(/C=C/c2ncnc3[nH]ccc23)cc1 [Compound 6, 4-(4-chlorostyryl)-7H-pyrrolo[2,3-d]pyrimidine]
< 500	< 500	500 to 5000	500 to 5000	FC(F)(F)c1ccc(/C=C/c2ncnc3[nH]ccc23)cc1 [Compound 7, 4-(4-(trifluoromethyl)styryl)-7H-pyrrolo[2,3-d]pyrimidine]
> 5000	500 to 5000	500 to 5000	500 to 5000	C=C(c1ccccc1)c1ncnc2[nH]ccc12 [Compound 8, 4-(1-phenylvinyl)-7H-pyrrolo[2,3-d]pyrimidine]
< 500	< 500	500 to 5000	500 to 5000	CC(C)(C)OC(=O)N1CC=C(c2ncnc3[nH]ccc23)CC1 [Compound 9]
500 to 5000	< 500	500 to 5000	500 to 5000	CC1CCCC=C1c1ncnc2[nH]ccc12 (stereo not drawn) [Compound 11]
500 to 5000		500 to 5000	500 to 5000	C=C(c1ncnc2[nH]ccc12)C1CCCCC1 [Compound 12]
< 500	< 500	500 to 5000	500 to 5000	C1=C(c2ncnc3[nH]ccc23)CCSC1 [Compound 13]
500 to 5000	500 to 5000	500 to 5000	500 to 5000	C=Cc1ncnc2[nH]ccc12 [Compound 14]
> 5000	> 5000	500 to 5000	500 to 5000	CC(=O)N1CC=C(c2ncnc3[nH]ccc23)CC1 [Compound 15]
500 to 5000	> 5000	500 to 5000	500 to 5000	O=C(CC(F)(F)F)N1CC=C(c2ncnc3[nH]ccc23)CC1 [Compound 16]
< 500	500 to 5000	500 to 5000	500 to 5000	N#CCC(=O)N1CC=C(c2ncnc3[nH]ccc23)CC1 [Compound 17]
< 500	< 500	500 to 5000	500 to 5000	C=C(c1ncnc2[nH]ccc12)C1CCCC1 [Compound 18]
< 500	< 500	500 to 5000	500 to 5000	CC1CC=C(c2ncnc3[nH]ccc23)C1C (stereo not drawn) [Compound 19]
< 500	< 500	500 to 5000	500 to 5000	C1=C(c2ncnc3[nH]ccc23)CCCCC1 [Compound 20]
< 500	< 500	500 to 5000	500 to 5000	C1=C(c2ncnc3[nH]ccc23)C2CCC1C2 (stereo not drawn) [Compound 21]
500 to 5000	500 to 5000	500 to 5000	500 to 5000	C=C(c1ncnc2[nH]ccc12)C1CCCN(C(=O)OC(C)(C)C)C1 (stereo not drawn) [Compound 22]

SMILES	Ki (JAK2) [nM]	Ki (JAK3) [nM]	Ki (PKA) [nM]	Ki (ROCK) [nM]
C1=C(c2ncnc3[nH]ccc23)CCNC1 [Compound 10]	> 5000	> 5000	500 to 5000	500 to 5000
